By IC50 is commonly meant the concentration needed to halve the response being measured.

Data on 30 compounds can be found in patent EP1452605A1, “Method for determining antiviral activity” (Universiteit Utrecht Holding B.V., priority 2003, dated 2004).

In data set [1] the test system is HIV-1Ba-L. The data set is described as follows: Combination of HIV-1 inhibitors in HIV-1Ba-L infected PBMC (checker board, CalcuSyn).
Description: After 7 days of incubation, p24 antigen in culture supernatant was quantified by ELISA and cellular viability was assessed by a cytotoxicity assay. fa was calculated for each drug combination after p24 quantification. Using the CalcuSyn program, dose-effect curves were plotted for each drug combination, i.e., each dose was plotted against the corresponding fa value. […] CI values were calculated using the mutually nonexclusive assumption.
In a further data set the target is T1, COX-2 (Homo sapiens, UniProt P35354).
T1 sequence (P35354 18-604): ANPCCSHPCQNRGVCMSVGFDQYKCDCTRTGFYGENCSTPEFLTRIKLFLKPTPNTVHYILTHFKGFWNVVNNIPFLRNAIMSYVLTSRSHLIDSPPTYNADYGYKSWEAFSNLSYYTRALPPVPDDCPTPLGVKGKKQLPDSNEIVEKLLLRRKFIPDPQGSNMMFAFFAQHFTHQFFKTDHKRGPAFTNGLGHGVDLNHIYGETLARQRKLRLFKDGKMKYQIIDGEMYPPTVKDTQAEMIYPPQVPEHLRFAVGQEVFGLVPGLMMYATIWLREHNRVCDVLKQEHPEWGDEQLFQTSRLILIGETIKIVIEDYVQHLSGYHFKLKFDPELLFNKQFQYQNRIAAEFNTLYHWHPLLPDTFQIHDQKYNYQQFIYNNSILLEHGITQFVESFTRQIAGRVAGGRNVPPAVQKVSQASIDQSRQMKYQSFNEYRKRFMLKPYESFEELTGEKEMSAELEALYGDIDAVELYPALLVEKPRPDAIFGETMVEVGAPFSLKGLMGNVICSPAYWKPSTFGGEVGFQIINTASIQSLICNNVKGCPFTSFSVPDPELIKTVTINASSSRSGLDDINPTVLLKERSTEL
The settings on record: cited from earlier work.

Data set [2] has as its system HIV-1Ba-L. The data set is described as follows: HIV-1 infection of PBMC, p24-core antigen ELISA. The data set is classed as cell-based. The settings on record: for antiviral activity compared to APHS / antiviral activity compared to compound 18: PBMC, HIV-1Ba-L. The procedure: To correct for the input virus, an extra control consisting of medium containing the same amount of input virus as added to the cells was included in the experiment. The amount of p24 in this control was subsequently subtracted from the p24 values of the samples in order to obtain the exact amount of p24 produced by the cells. p24-core antigen quantification by ELISA After 2 or 7 days incubation, samples of the supernatants were collected, inactivated by addition of Empigen (Calbiochem, La Jolla, CA, USA) and by heat inactivation at 56°C for 30 min. p24-core antigen concentration was determined by an enzyme linked immunoabsorbent assay (ELISA) (AMPAK™, DAKO, Cambridgeshire, UK) as described previously ^18,19. The optical density values were converted into p24 concentration (ng/ml) with the use of a calibration curve made by serial dilutions of recombinant p24 protein (NIBSC, UK) that was submitted to the same treatment as the samples.
(§1) To correct for the input virus, an extra control consisting of medium containing the same amount of input virus as added to the cells was included in the experiment. The amount of p24 in this control was subsequently subtracted from the p24 values of the samples in order to obtain the exact amount of p24 produced by the cells.
After 7 days incubation, samples of the supernatants were collected, inactivated by addition of Empigen (Calbiochem, La Jolla, CA, USA) and by heat inactivation at 56°C for 30 min. p24-core antigen concentration was determined by an ELISA (AMPAK™, DAKO, Cambridgeshire, UK) as described previously ^39,40. The optical density values were converted into p24 concentration (ng/ml) with the use of a calibration curve made by serial dilutions of recombinant p24 protein (NIBSC, UK) that was submitted to the same treatment as the samples.
as §1
After 7 days incubation, samples of the supernatants were collected, inactivated by addition of Empigen (Calbiochem, La Jolla, CA, USA) and by heat inactivation at 56°C for 30 min. p24-core antigen concentration was determined by an enzyme linked immunoabsorbent assay (ELISA) (AMPAK™, DAKO, Cambridgeshire, UK) as described previously 15,16. The optical density values were converted into p24 concentration (ng/ml) with the use of a calibration curve made by serial dilutions of recombinant p24 protein (NIBSC, UK) that was submitted to the same treatment as the samples.
On the technique in general: An ELISA detects its analyte on a solid surface through an enzyme-linked reagent.

Another data set concerns PBMC. The experiment in a line: Cellular viability assay (MTT) of PBMC. Conditions: PBMC.
A short description of a further data set: in vitro. Conditions: human, pbmc.
The mark [3] stands for this setting: Human immunodeficiency virus 1, PBMC, 168 h, read-out: IC50 Drug, drug alone, head over this column prints Combination.
[4] abbreviates: read-out: IC50 Combination Drug, drug in combination with APHS at the equipotent ratio (1 : 1).
Setting [5] is: Human immunodeficiency virus 1, 168 h, PBMC infected with HIV-1Ba-L, p24 antigen after 7 days, read-out: IC50.
The mark [6] stands for this setting: PBMC infected with HIV-1Ba-L, p24 antigen after 7 days, read-out: IC50.
Setting [7] is: Human immunodeficiency virus 1, PBMC, 168 h.

`Nc1ccn([C@@H]2CS[C@H](CO)O2)c(=O)n1` [3TC, lamivudine]: the IC50 was 10 nM in the data set with HIV-1Ba-L [1] (setting [3]) and 3 nM in the data set with HIV-1Ba-L [1] (setting [4]).
As for `CCCCC#CCS(=O)(=O)c1ccccc1OC(C)=O` [APHS-d1], on COX-2, the “COX-2 activity, potency and selectivity compared with APHS” value (“COX-2 activity, potency and selectivity” below) is given as “without anti-COX-2 activity”.
In the case of `CCCCCCCSc1ccccc1OC(C)=O` [APHS-d2], the “COX-2 activity, potency and selectivity” value at COX-2 is “as potent as APHS but less selective against COX-2 than APHS”.
Consider `CCCCC#CCSc1ccccc1O` [APHS-d3], for which, at COX-2, the “COX-2 activity, potency and selectivity” value is “without COX-2 activity”.
As for `CSc1ccccc1OC(C)=O` [APHS-d4], on COX-2, the “COX-2 activity, potency and selectivity” value is recorded as “more selective than APHS”; the “times less potent than APHS against COX-2” value is reported as 100.
In the case of `O=C1Nc2ccc(Cl)cc2[C@@](C#CC2CC2)(C(F)(F)F)O1` [EFV, efavirenz], the IC50 in the data set with HIV-1Ba-L [1] (setting [3]) is 1 nM; with HIV-1Ba-L [1] (setting [4]) it was 0.2 nM.
Turning to `CC(C)(C)NC(=O)[C@@H]1CN(Cc2cccnc2)CCN1C[C@@H](O)C[C@@H](Cc1ccccc1)C(=O)N[C@H]1c2ccccc2C[C@H]1O` [IDV, indinavir], the IC50 with HIV-1Ba-L [1] (setting [3]) was 11 nM; in the data set with HIV-1Ba-L [1] (setting [4]) it was 5 nM.
As for `CC(C)c1nc(CN(C)C(=O)N[C@H](C(=O)N[C@@H](Cc2ccccc2)C[C@H](O)[C@H](Cc2ccccc2)NC(=O)OCc2cncs2)C(C)C)cs1` [RTV, ritonavir], the concentration for half-maximal inhibition (IC50) in the data set on HIV-1Ba-L [1] (setting [3]) was 6 nM; in the data set on HIV-1Ba-L [1] (setting [4]) it was 3 nM.
Take `CC(=O)Oc1ccccc1C(=O)O` [aspirin, reference compound]: at COX-2, the “times less potent than APHS against COX-2” value is 60 and the “times less selective than APHS for COX-2” value was 100.
As for `CCCCC#CCSc1ccccc1OCC` [compound 1, Benzene, 1-ethoxy-2-(2-heptynylthio)-], the “antiviral activity compared to APHS” value with HIV-1Ba-L [2] is listed as “decreased”. The “cytotoxicity compared to APHS” value in the data set with PBMC was “decreased”.
As for `CCCCOCCSc1ccccc1OC(=O)C(F)(F)F` [compound 7, Acetic acid, trifluoro-, 2-(2-butoxyethylthio)phenylester], the “antiviral activity compared to APHS” value in the data set on HIV-1Ba-L [2] is given as “decreased”. In addition, in the data set on PBMC, the “cytotoxicity compared to APHS” value is reported as “decreased”.
On to `CCCCCCCCSc1ccccc1O` [compound 8], for which the “antiviral activity compared to APHS” value in the data set on HIV-1Ba-L [2] is recorded as “less antiviral activity than APHS”. In the data set with PBMC, the “cytotoxicity compared to APHS” value is given as “increase”.
`CCCCCCCCSc1ccccc1OC(C)=O` [compound 9]: the IC50 in the data set with HIV-1Ba-L [2] (setting [5]) came out at 20000 nM. Further, the CC50 at 168 h in “in vitro” turned out to be 135000 nM.
As for `CCCCCCCSc1ccccc1O` [compound 10], the “antiviral activity compared to APHS” value in the data set on HIV-1Ba-L [2] was “less antiviral activity than APHS”. Besides, the “cytotoxicity compared to APHS” value in the data set on PBMC is recorded as “increase”.
Regarding `CCCCCCCSc1ccccc1OC(C)=O` [compound 11], in the data set on HIV-1Ba-L [2] (setting [5]), the IC50 came out at 10000 nM. Besides, the CC50 at 168 h in the data set “in vitro” was 48000 nM.
For the compound `CCCCCCCSc1ccccc1OC(=O)C(F)(F)F` [compound 12, Acetic acid, trifluoro-, 2-(heptylthio) phenylester], the “antiviral activity compared to APHS” value with HIV-1Ba-L [2] is reported as “decreased”. Besides, in the data set with PBMC, the “cytotoxicity compared to APHS” value is “decreased”.
As to `CCCCCCCSc1ccccc1OC(=O)CCCC` [compound 13, Phenol, 2-(heptylthio)-, valerate], in the data set on HIV-1Ba-L [2], the “antiviral activity compared to APHS” value is reported as “decreased”. For the same compound, the “cytotoxicity compared to APHS” value with PBMC is recorded as “decreased”.
For `CCCCCCCSc1ccccc1OC(=O)c1ccccc1` [compound 14, Phenol, 2-(heptylthio)-, benzoate], the “antiviral activity compared to APHS” value with HIV-1Ba-L [2] is “decreased”. The “cytotoxicity compared to APHS” value in the data set on PBMC is given as “increased”.
With `CCCCCCCSc1ccc(O)cc1` [compound 15], the IC50 in the data set with HIV-1Ba-L [2] (setting [6]) was determined as 3000 nM. Further, the “antiviral activity compared to APHS” value in the data set on HIV-1Ba-L [2] was “increased”. Besides, in the data set with PBMC, the “cytotoxicity compared to APHS” value was “increased” and the “fold increase in cytotoxicity compared to APHS” value is given as “about 10”.
On to `CCCCCCCSc1ccc(OC(C)=O)cc1` [compound 16, Phenol, 4-(heptylthio)-, acetate], for which the IC50 with HIV-1Ba-L [2] (setting [5]) worked out at 2000 nM. For the same compound, the “antiviral activity compared to APHS” value in the data set on HIV-1Ba-L [2] is “increase”. Further, in the data set with PBMC, the “cytotoxicity compared to APHS” value is given as “increase” and the “fold increase in cytotoxicity compared to APHS” value is “about 10”.
For the compound `CCCCCCSc1ccccc1O` [compound 17], the IC50 with HIV-1Ba-L [2] (setting [7]) was found to be 4000 nM. Besides, the “antiviral activity compared to APHS” value in the data set on HIV-1Ba-L [2] was “improvement”. Besides, the “cytotoxicity compared to APHS” value in the data set on PBMC is listed as “increase”.
Turning to `CCCCCCSc1ccccc1OC(C)=O` [compound 18], the half-inhibitory concentration (IC50) in the data set with HIV-1Ba-L [2] (setting [6]) came out at 3000 nM. Also, the CC50 in the data set on PBMC (read-out: TC50, 7 days, MTT) came to 119000 nM.
`CCCCCSc1ccccc1O` [compound 19] came in with an IC50 with HIV-1Ba-L [2] (setting [7]) of 900 nM. In addition, in the data set with HIV-1Ba-L [2], the “antiviral activity compared to APHS” value is reported as “improved”.
With `CCCCCSc1ccccc1OC(C)=O` [compound 20], the “antiviral activity compared to compound 18” value in the data set on HIV-1Ba-L [2] was “worse”.
Compound `CCCCSc1ccccc1O` [compound 21] registered a 50% inhibitory concentration (IC50) in the data set with HIV-1Ba-L [2] (setting [7]) of 3000 nM. In addition, the “antiviral activity compared to APHS” value with HIV-1Ba-L [2] was “improved”.
`CCCCSc1ccccc1OC(C)=O` [compound 22]: the “antiviral activity compared to compound 18” value in the data set on HIV-1Ba-L [2] is reported as “worse”.
With `CCCSc1ccccc1O` [compound 23], the IC50 in the data set on HIV-1Ba-L [2] (setting [7]) stood at 5000 nM. Also, the “antiviral activity compared to APHS” value with HIV-1Ba-L [2] is listed as “improved”.
As for `CCCSc1ccccc1OC(C)=O` [compound 24], in the data set with HIV-1Ba-L [2], the “antiviral activity compared to compound 18” value was “worse”.
Take `CCSc1ccccc1O` [compound 25]: inhibition in the data set with HIV-1Ba-L [2] (setting [7]) was half-maximal at 4000 nM (IC50). The “antiviral activity compared to APHS” value in the data set with HIV-1Ba-L [2] is recorded as “improved”.
`CCSc1ccccc1OC(C)=O` [compound 26]: the “antiviral activity compared to compound 18” value with HIV-1Ba-L [2] is given as “worse”.
